Reference: patent US7879347B2, “Dihydroxyphenyl compounds and glucoside compounds thereof” (KAO Corporation, priority 2001, dated 2011)

How the values were obtained:
[1] = system: Free fatty cells from epididymis fatty tissues; assay: Determination of lypolytic activity in free fatty cells; format: cell-based, Wister male rats; conditions: for degree of lypolysis promotion (%): 100 μg/ml test compound, 0.05 μg/ml norepinephrine, 37° C., 1 hour, fatty acids relative to control solution without compound (=100)
Experimental: The cells were added to a Hank's balanced solution containing 0.05 μg/ml of bovine serum albumin, 0.05 μg/ml of norepinephrine and 100 μg/ml of the present compound to be tested, and then allowed to react at 37° C. for 1 hour. Liberated fatty acids were extracted and quantitated with a copper reagent and a color developing reagent. Lypolytic activity was calculated according to the following equation. Lypolytic activity(%)=[A/B]×100, wherein A: amount of fatty acids in a sample solution, and B: that in a control solution without present compound. Subcutaneous Fat Decomposition Test

B16 melanoma cells = assay: Melanogenesis inhibition test; format: cell-based; conditions: 72 hours; for Amount of melanin per cell (%): Theophylline containing medium, relative to blank
Experimental: B16 melanoma cells were inoculated in a 12 wells-plastic plate at a concentration of 2×10^4/well on MEM (Minimum Essential Medium). After 24 hours, the medium was changed to a Theophylline containing medium to which 4-(3′,4′-dihydroxyphenyl)-butane-2-one was added in the concentrations shown in Table 6. The cells were cultured for 72 hours and then treated with 10% TCA and ethanol/diethylether(=1/1). After counting the number of the cells, the cells were dissolved in an aqueous 1 mol/l sodium hydroxide solution containing dimethylsulfoxide in a concentration of 10%. Optical density at 475 nm (OD475) of the solution thus obtained was measured.

[2] = Anti-oxidation test (UV-induced peroxide formation); set-up: unit not given here; conditions: 0.005 g compound in 1 ml methyl linolate
Excerpt: Comparative test on raspberry ketone was made in the same manner as above.

SMILES | degree of lypolysis promotion (%) [1] | lypolytic activity compared with raspberry ketone of Comparative Example 1 ([1]; comparison in words) | Amount of melanin per cell (%) (B16 melanoma cells; concentration 1 μg/l) | Amount of melanin per cell (%) (B16 melanoma cells; concentration 3 μg/l) | Amount of melanin per cell (%) (B16 melanoma cells; concentration 10 μg/l) | Amount of melanin per cell (%) (B16 melanoma cells; concentration 30 μg/l) | numbers of the cells (B16 melanoma cells; concentration range of Table 6 (up to 30 μg/l)) | amount of peroxides formed by oxidation of methyl linolate ([2]; UVB 10 (J/cm^2)) | amount of peroxides formed by oxidation of methyl linolate ([2]; UVB 30 (J/cm^2))
CC(=O)CCc1ccc(O)c(O)c1 [4-(3′,4′-dihydroxyphenyl)-butane-2-one] | 194.3 +/− 12.4% | significantly higher | 94.7% | 77.2% | 62.7% | 2.2% | no difference | 1.6 | 3.7
CC(=O)CCc1ccc(O)cc1 [Raspberry ketone, reference compound] | 142.0 +/− 6.8% | – | – | – | – | – | – | 30.2 | 42.5
